Assay results from patent US20200270233A1, “DHFR INHIBITORS, COMPOSITIONS, AND METHODS RELATED THERETO” (Vyera Pharmaceuticais LLC, priority 2017, published 2020).
Like-named read-outs stand apart in the source and are kept apart here.

Columns and labels:
T. gondii DHFR (tgDHFR) = target: T1, T. gondii DHFR (tgDHFR) (Toxoplasma gondii, UniProt Q07422); assay: biochemical; conditions: for Average DHFR selectivity (h/tg): hDHFR IC50/tgDHFR IC50
T1 sequence (Q07422 1-610): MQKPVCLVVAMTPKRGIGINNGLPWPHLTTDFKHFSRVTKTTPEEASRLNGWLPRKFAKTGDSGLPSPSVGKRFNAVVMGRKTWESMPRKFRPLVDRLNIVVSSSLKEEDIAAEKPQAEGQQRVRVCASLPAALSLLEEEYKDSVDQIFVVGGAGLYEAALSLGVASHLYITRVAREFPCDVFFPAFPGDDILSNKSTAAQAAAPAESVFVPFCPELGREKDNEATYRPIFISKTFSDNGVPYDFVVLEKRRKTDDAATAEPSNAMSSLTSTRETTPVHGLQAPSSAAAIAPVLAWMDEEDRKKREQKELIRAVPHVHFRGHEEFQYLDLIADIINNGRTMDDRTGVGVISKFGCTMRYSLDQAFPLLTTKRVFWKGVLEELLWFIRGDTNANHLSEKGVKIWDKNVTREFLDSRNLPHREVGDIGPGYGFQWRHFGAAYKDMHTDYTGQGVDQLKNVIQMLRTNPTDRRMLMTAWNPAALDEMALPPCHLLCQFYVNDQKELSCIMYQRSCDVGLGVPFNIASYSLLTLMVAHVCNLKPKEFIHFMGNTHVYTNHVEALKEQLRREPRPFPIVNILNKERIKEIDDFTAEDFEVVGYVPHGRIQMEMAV

hDHFR = target: T2, hDHFR (Homo sapiens, UniProt P00374); type: biochemical
T2 sequence (P00374 1-187): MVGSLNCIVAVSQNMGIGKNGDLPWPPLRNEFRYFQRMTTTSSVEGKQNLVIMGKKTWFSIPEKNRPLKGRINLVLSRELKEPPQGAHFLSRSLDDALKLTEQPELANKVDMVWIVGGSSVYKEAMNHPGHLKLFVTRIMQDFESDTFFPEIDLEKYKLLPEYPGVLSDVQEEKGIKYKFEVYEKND

[1] = Table 16, pIC50 = -log10 IC50, at least three replicates, read-out: hDHFR pIC50-DHFR primary assay (converted)
[2] = Table 18, pIC50 = -log10 IC50, at least three replicates, read-out: hDHFR pIC50-DHFR primary assay (converted)
[3] = Table 16, pIC50 = -log10 IC50, at least three replicates, read-out: tgDHFR pIC50-DHFR primary assay (converted)

Structure (SMILES) | IC50 (T. gondii DHFR (tgDHFR)) | IC50 (hDHFR; [1]) | other results
Nc1ncc(N2CCN(c3ccc(Cl)c(Cl)c3)CC2)c(N)n1 [Compound 1, 5-(4-(3,4-dichlorophenyl)piperazin-1-yl)pyrimidine-2,4-diamine] | 13.8 nM | 75.9 nM | 
Nc1ncc(N2CCN(c3cccc(Br)c3)CC2)c(N)n1 [Compound 11, 5-(4-(3-bromophenyl)piperazin-1-yl)pyrimidine-2,4-diamine] | 11.7 nM | 437 nM | 
Nc1ncc(N2CCC(c3ccccc3)CC2)c(N)n1 [Compound 15, 5-(4-phenylpiperidin-1-yl)pyrimidine-2,4-diamine] | 162 nM | 4070 nM | 
Nc1ncc(N2CCN(c3cccc(N4CCOCC4)c3)CC2)c(N)n1 [Compound 25, 5-(4-(3-morpholinophenyl)piperazin-1-yl)pyrimidine-2,4-diamine] | 138 nM | 14100 nM | 
CC1CN(c2cnc(N)nc2N)CCN1c1cccc(-c2ccccc2)c1 (stereo not shown) [Compound 26, 5-(4-([1,1′-biphenyl]-3-yl)-3-methylpiperazin-1-yl)pyrimidine-2,4-diamine] | 2 nM | 30.2 nM | 
CC1CN(c2cccc(-c3ccccc3)c2)CCN1c1cnc(N)nc1N (stereo not drawn) [Compound 27, 5-(4-([1,1′-biphenyl]-3-yl)-2-methylpiperazin-l-yl)pyrimidine-2,4-diamine] | 138 nM | 30200 nM | 
CCc1nc(N)nc(N)c1N1CCN(c2ccccc2)CC1 [Compound 28, 6-ethyl-5-(4-phenylpiperazin-1-yl)pyrimidine-2,4-diamine] | 5.75 nM | 1350 nM | 
CCc1nc(N)nc(N)c1N1CCN(c2cccc(C)c2)CC1 [Compound 31, 6-ethyl-5-(4-(m-tolyl)piperazin-1-yl)pyrimidine-2,4-diamine] | 3.47 nM | 417 nM | 
CCc1nc(N)nc(N)c1N1CCN(c2cccc(OC)c2)CC1 [Compound 33, 6-ethyl-5-(4-(3-methoxyphenyl)piperazin-1-yl)pyrimidine-2,4-diamine] | 4.37 nM |  | IC50 (hDHFR; hDHFR pIC50-DHFR primary assay): 525 nM
CCc1nc(N)nc(N)c1N1CCN(c2ccccn2)CC1 [Compound 34, 6-ethyl-5-(4-(pyridin-2-yl)piperazin-1-yl)pyrimidine-2,4-diamine] | 6.46 nM | 1020 nM | 
CCc1nc(N)nc(N)c1N1CCN(c2ccc(F)cc2)CC1 [Compound 35, 6-ethyl-5-(4-(4-fluorophenyl)piperazin-1-yl)pyrimidine-2,4-diamine] | 6.92 nM |  | 
CCc1nc(N)nc(N)c1N1CCN(c2ccncc2)CC1 [Compound 36, 6-ethyl-5-(4-(pyridin-4-yl)piperazin-1-yl)pyrimidine-2,4-diamine] | 269 nM | 30200 nM | 
CCc1nc(N)nc(N)c1N1CCN(c2ccc(C)cc2)CC1 [Compound 39, 6-ethyl-5-(4-(p-tolyl)piperazin-1-yl)pyrimidine-2,4-diamine] | 12.3 nM | 1740 nM | 
CCc1nc(N)nc(N)c1N1CCN(c2ccc(F)cn2)CC1 [Compound 44, 6-ethyl-5-(4-(5-fluoropyridin-2-yl)piperazin-1-yl)pyrimidine-2,4-diamine] | 4.17 nM | 295 nM | 
CCc1nc(N)nc(N)c1N1CCN(c2ccc(C)cn2)CC1 [Compound 45, 6-ethyl-5-(4-(5-methylpyridin-2-yl)piperazin-1-yl)pyrimidine-2,4-diamine] | 5.89 nM | 794 nM | 
Cc1nc(N)nc(N)c1N1CCN(c2cccc(Cl)c2)CC1 [Compound 46, 5-(4-(3-chlorophenyl)piperazin-1-yl)-6-methylpyrimidine-2,4-diamine] | 8.13 nM |  | Average DHFR selectivity (h/tg) (T. gondii DHFR (tgDHFR); Table 16): 29.68; IC50 (hDHFR): 240 nM
Cc1nc(N)nc(N)c1N1CCN(c2ccccc2)CC1 [Compound 47, 6-methyl-5-(4-phenylpiperazin-1-yl)pyrimidine-2,4-diamine] | 26.3 nM | 2240 nM | 
CCCc1nc(N)nc(N)c1N1CCC(c2ccccc2)CC1 [Compound 51, 5-(4-phenylpiperidin-1-yl)-6-propylpyrimidine-2,4-diamine] | 11.7 nM | 2450 nM | 
CCCc1nc(N)nc(N)c1N1CCN(c2ccc(F)cc2)CC1 [Compound 52, 5-(4-(4-fluorophenyl)piperazin-1-yl)-6-propylpyrimidine-2,4-diamine] | 33.1 nM | 10000 nM | 
CCCc1nc(N)nc(N)c1N1CCN(c2ccccn2)CC1 [Compound 56, 6-propyl-5-(4-(pyridin-2-yl)piperazin-1-yl)pyrimidine-2,4-diamine] | 25.7 nM | 6760 nM | 
CCCc1nc(N)nc(N)c1N1CCN(c2ncc(C)cn2)CC1 [Compound 59, 5-(4-(5-methylpyrimidin-2-yl)piperazin-1-yl)-6-propylpyrimidine-2,4-diamine] | 70.8 nM | 8130 nM | 

Structure (SMILES) | IC50 (T. gondii DHFR (tgDHFR)) | IC50 (hDHFR; [1]) | other results
CCCc1nc(N)nc(N)c1N1CCN(c2ccc(OC)cn2)CC1 [Compound 60, 5-(4-(5-methoxypyridin-2-yl)piperazin-1-yl)-6-propylpyrimidine-2,4-diamine] | 20 nM | 2880 nM | 
Nc1ncc(N2CCN(c3cccc(-c4cccc(F)c4)c3)CC2)c(N)n1 [Compound 64] | 11.5 nM | 1070 nM | 
N#Cc1cccc(-c2cccc(N3CCN(c4cnc(N)nc4N)CC3)c2)c1 [Compound 67] | 3.89 nM | 302 nM | 
Cc1ncc(-c2cccc(N3CCN(c4cnc(N)nc4N)CC3)c2)cn1 [Compound 69, 5-(4-(3-(2-methylpyrimidin-5-yl)phenyl)piperazin-1-yl)pyrimidine-2,4-diamine] | 4.47 nM |  | 
Nc1ncc(N2CCN(c3cccc(-c4cncnc4)c3)CC2)c(N)n1 [Compound 74] |  |  | IC50 (hDHFR; [2]): 3090 nM
COc1ncccc1-c1cccc(N2CCN(c3cnc(N)nc3N)CC2)c1 [Compound 80] | 6.17 nM | 1020 nM | 
Nc1ncc(N2CCN(c3cccc(-c4cnc(C5CC5)nc4)c3)CC2)c(N)n1 [Compound 86] |  |  | IC50 (hDHFR; [2]): 832 nM
CCc1ncc(-c2cccc(N3CCN(c4cnc(N)nc4N)CC3)c2)cn1 [Compound 95] | 7.24 nM | 1580 nM | IC50 (hDHFR; [2]): 1410 nM
CN(C)c1ncc(-c2cccc(N3CCN(c4cnc(N)nc4N)CC3)c2)cn1 [Compound 96] | 10 nM | 1150 nM | 
CNc1ncc(-c2cccc(N3CCN(c4cnc(N)nc4N)CC3)c2)cn1 [Compound 97] | 5.62 nM | 741 nM | 
Nc1ncc(N2CCN(c3cccc(-c4cnc(Cl)nc4)c3)CC2)c(N)n1 [Compound 100] | 6.76 nM | 1320 nM | IC50 (hDHFR; [2]): 1320 nM
Nc1nc(N)c(N2CCN(c3ccccc3)CC2)c(CC2CC2)n1 [Compound 106] | 27.5 nM | 5890 nM | 
Nc1ncc(N2CCN(c3cccc(C4CCOCC4)c3)CC2)c(N)n1 [Compound 110, 5-(4-(3-(tetrahydro-2H-pyran-4-yl)phenyl)piperazin-1-yl)pyrimidine-2,4-diamine] | 34.7 nM | 6170 nM | IC50 (hDHFR; Table 20, pIC50 = -log10 IC50, at least three replicates, read-out: hDHFR pIC50-DHFR primary assay (converted)): 7760 nM
Cc1ncc(-c2cccc(C3CCN(c4cnc(N)nc4N)CC3)c2)cn1 [Compound 113, 5-(4-(3-(2-methylpyrimidin-5-yl)phenyl)piperidin-1-yl)pyrimidine-2,4-diamine] | 6.17 nM | 372 nM | 
COc1ncc(-c2cccc(N3CCN(c4cnc(N)nc4N)CC3)n2)cn1 [Compound 158] |  | 18.2 nM | Average DHFR selectivity (h/tg) (T. gondii DHFR (tgDHFR); Table 16): 17.78; IC50 (T. gondii DHFR (tgDHFR); [3]): 1.02 nM
COc1ncc(-c2cccc(N3CCN(c4cnc(N)nc4N)CC3)c2F)cn1 [Compound 159] |  | 2340 nM | Average DHFR selectivity (h/tg) (T. gondii DHFR (tgDHFR); Table 16): 80.32; IC50 (T. gondii DHFR (tgDHFR); [3]): 30.2 nM
COc1ncc(-c2cc(N3CCN(c4cnc(N)nc4N)CC3)ccc2F)cn1 [Compound 160] |  | 389 nM | Average DHFR selectivity (h/tg) (T. gondii DHFR (tgDHFR); Table 16): 156.11; IC50 (T. gondii DHFR (tgDHFR); [3]): 2.51 nM
COc1ncc(-c2cc(F)cc(N3CCN(c4cnc(N)nc4N)CC3)c2)cn1 [Compound 161] |  | 138 nM | Average DHFR selectivity (h/tg) (T. gondii DHFR (tgDHFR); Table 16): 51.27; IC50 (T. gondii DHFR (tgDHFR); [3]): 2.69 nM
COc1ncc(-c2cncc(N3CCN(c4cnc(N)nc4N)CC3)c2)cn1 [Compound 162] |  | 1450 nM | Average DHFR selectivity (h/tg) (T. gondii DHFR (tgDHFR); Table 16): 117.08; IC50 (T. gondii DHFR (tgDHFR); [3]): 12.3 nM
COc1ncc(-c2cc(N3CCN(c4cnc(N)nc4N)CC3)ccn2)cn1 [Compound 163] |  | 155 nM | Average DHFR selectivity (h/tg) (T. gondii DHFR (tgDHFR); Table 16): 23.00; IC50 (T. gondii DHFR (tgDHFR); [3]): 6.76 nM
COc1ncc(-c2ccc(F)c(N3CCN(c4cnc(N)nc4N)CC3)c2)cn1 [Compound 164] |  | 562 nM | Average DHFR selectivity (h/tg) (T. gondii DHFR (tgDHFR); Table 16): 65.26; IC50 (T. gondii DHFR (tgDHFR); [3]): 8.71 nM
